From US9896435B2, “N-pyrrolidinyl,N′-pyrazolyl-urea, thiourea, guanidine and cyanoguanidine compounds as TrkA kinase inhibitors” (Array BioPharma Inc., priority 2012, dated 2018)

Legend:
Experiment in all cases: KinaseProfiler off-target kinase profiling
Type in all cases: biochemical
Conditions in all cases: 10 μM, ATP near Km
CK1gamma3 = CK1gamma3 (Homo sapiens (Human), UniProt Q9Y6M4)
Method in brief: (§1)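 Single-concentration screen: 10 μM compound, ATP set close to the Km of each individual kinase. Output is percent of control averaged over duplicate wells.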

DAPK2 = DAPK2 (Homo sapiens (Human), UniProt Q9UIK4)
Method in brief: as §1

DRAK1 = DRAK1 (Homo sapiens (Human), UniProt Q9UEE5)
Method in brief: as §1

DYRK2 = DYRK2 (Homo sapiens (Human), UniProt Q92630)
DYRK2, sequence (Q92630 whole entry): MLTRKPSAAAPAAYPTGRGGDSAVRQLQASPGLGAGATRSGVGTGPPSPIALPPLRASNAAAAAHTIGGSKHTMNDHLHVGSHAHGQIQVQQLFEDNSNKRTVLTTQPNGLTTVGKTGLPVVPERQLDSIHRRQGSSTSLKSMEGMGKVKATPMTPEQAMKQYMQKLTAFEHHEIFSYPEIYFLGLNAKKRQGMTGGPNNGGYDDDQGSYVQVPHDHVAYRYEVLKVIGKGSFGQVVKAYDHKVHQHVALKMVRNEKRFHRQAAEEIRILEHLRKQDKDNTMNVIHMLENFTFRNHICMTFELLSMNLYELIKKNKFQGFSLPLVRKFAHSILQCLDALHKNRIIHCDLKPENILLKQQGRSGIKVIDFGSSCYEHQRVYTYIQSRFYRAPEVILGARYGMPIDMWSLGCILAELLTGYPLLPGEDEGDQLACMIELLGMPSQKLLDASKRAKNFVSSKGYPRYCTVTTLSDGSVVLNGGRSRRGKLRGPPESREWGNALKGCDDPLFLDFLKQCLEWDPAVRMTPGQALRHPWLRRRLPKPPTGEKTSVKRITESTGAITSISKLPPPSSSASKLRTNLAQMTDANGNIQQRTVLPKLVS
Method in brief: as §1

ERK2 = ERK2 (Homo sapiens (Human), UniProt P28482)
Method in brief: as §1

EphA3 = EphA3 (Homo sapiens (Human), UniProt P29320)
Method in brief: as §1

EphA4 = EphA4 (Homo sapiens (Human), UniProt P54764)
Method in brief: as §1

EphA5 = EphA5 (Homo sapiens (Human), UniProt P54756)
Method in brief: as §1

ErbB4 = ErbB4 (Homo sapiens (Human), UniProt Q15303)
Method in brief: as §1

Fgr = Fgr (Homo sapiens (Human), UniProt P09769)
Method in brief: as §1

GRK5 = GRK5 (Homo sapiens (Human), UniProt P34947)
Method in brief: as §1

GRK6 = GRK6 (Homo sapiens (Human), UniProt P43250)
Method in brief: as §1

GSK3alpha = GSK3alpha (Homo sapiens (Human), UniProt P49840)
Method in brief: as §1

HIPK2 = HIPK2 (Homo sapiens (Human), UniProt Q9H2X6)
Method in brief: as §1

IKKbeta = IKKbeta (Homo sapiens (Human), UniProt O14920)
IKKbeta, sequence (O14920 whole entry): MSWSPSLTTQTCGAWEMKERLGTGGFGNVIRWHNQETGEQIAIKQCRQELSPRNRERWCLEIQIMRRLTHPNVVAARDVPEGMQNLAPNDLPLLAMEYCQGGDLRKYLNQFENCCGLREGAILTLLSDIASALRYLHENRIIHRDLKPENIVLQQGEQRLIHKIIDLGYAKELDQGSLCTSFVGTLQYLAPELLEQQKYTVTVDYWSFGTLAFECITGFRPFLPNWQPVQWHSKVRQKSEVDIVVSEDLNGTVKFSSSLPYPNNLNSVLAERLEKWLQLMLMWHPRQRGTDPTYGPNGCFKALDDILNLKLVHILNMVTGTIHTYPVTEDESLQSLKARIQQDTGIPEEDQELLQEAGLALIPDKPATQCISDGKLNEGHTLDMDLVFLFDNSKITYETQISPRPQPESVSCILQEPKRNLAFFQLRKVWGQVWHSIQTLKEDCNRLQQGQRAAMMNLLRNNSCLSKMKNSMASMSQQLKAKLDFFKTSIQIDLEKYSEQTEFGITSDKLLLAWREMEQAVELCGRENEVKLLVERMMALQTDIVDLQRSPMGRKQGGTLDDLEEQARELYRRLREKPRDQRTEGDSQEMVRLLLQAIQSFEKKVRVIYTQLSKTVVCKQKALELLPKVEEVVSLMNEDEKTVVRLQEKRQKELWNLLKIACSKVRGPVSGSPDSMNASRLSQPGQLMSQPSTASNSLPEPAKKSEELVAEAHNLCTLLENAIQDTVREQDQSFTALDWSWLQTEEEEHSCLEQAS
Method in brief: as §1

IRAK4 = IRAK4 (Homo sapiens (Human), UniProt Q9NWZ3)
Method in brief: as §1

JNK1alpha1 = JNK1alpha1 (Homo sapiens (Human), UniProt P45983)
JNK1alpha1, sequence (P45983 other isoform, or with tags, fused parts or gaps): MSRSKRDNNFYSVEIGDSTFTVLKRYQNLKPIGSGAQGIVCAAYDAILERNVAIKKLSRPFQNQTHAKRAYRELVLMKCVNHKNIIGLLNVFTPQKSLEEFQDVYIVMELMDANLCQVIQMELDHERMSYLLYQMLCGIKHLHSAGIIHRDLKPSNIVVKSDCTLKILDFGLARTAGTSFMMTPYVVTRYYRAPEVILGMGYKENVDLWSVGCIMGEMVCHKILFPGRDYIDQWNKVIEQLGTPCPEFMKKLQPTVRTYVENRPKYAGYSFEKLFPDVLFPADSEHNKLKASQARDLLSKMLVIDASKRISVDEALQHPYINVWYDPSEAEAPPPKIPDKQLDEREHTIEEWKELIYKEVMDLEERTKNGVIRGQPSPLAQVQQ
Method in brief: as §1

JNK3 = JNK3 (Homo sapiens (Human), UniProt P53779)
Method in brief: as §1

KIT = KIT (Homo sapiens (Human), UniProt P10721)
Method in brief: as §1

MINK = MINK (Homo sapiens (Human), UniProt Q8N4C8)
Method in brief: as §1

MST1 = MST1 (Homo sapiens (Human), UniProt Q13043)
Method in brief: as §1

PAK5 = PAK5 (Homo sapiens (Human), UniProt Q9P286)
Method in brief: as §1

PDGFRbeta = PDGFRbeta (Homo sapiens (Human), UniProt P09619)
Method in brief: as §1

PKCdelta = PKCdelta (Homo sapiens (Human), UniProt Q05655)
Method in brief: as §1

PKCgamma = PKCgamma (Homo sapiens (Human), UniProt P05129)
Method in brief: as §1

PKD2 = PKD2 (Homo sapiens (Human), UniProt Q9BZL6)
PKD2, sequence (Q9BZL6 whole entry): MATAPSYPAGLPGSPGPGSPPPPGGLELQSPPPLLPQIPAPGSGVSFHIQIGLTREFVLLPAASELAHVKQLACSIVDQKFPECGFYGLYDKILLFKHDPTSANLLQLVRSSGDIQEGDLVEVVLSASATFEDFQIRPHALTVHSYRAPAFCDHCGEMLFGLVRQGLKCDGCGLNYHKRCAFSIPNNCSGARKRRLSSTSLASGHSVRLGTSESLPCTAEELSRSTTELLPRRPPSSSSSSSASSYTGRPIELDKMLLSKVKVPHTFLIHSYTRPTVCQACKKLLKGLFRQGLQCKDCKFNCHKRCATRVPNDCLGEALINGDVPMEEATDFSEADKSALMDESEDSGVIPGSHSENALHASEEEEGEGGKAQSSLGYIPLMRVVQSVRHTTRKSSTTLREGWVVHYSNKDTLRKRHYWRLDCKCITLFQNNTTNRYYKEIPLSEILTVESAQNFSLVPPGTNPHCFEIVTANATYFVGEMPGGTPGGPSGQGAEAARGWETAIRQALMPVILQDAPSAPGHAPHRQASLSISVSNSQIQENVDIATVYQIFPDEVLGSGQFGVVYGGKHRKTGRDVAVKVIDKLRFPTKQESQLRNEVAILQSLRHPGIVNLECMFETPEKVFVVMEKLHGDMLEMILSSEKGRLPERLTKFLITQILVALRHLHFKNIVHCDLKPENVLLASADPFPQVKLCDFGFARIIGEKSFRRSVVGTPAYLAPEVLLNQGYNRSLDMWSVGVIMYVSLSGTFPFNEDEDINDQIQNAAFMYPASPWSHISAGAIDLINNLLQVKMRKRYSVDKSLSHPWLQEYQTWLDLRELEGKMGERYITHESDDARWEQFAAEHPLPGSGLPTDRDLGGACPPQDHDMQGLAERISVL
Method in brief: as §1

Plk3 = Plk3 (Homo sapiens (Human), UniProt Q9H4B4)
Method in brief: as §1

PrKX = PrKX (Homo sapiens (Human), UniProt P51817)
Method in brief: as §1

ROCK-I = ROCK-I (Homo sapiens (Human), UniProt Q13464)
ROCK-I, sequence (Q13464 whole entry): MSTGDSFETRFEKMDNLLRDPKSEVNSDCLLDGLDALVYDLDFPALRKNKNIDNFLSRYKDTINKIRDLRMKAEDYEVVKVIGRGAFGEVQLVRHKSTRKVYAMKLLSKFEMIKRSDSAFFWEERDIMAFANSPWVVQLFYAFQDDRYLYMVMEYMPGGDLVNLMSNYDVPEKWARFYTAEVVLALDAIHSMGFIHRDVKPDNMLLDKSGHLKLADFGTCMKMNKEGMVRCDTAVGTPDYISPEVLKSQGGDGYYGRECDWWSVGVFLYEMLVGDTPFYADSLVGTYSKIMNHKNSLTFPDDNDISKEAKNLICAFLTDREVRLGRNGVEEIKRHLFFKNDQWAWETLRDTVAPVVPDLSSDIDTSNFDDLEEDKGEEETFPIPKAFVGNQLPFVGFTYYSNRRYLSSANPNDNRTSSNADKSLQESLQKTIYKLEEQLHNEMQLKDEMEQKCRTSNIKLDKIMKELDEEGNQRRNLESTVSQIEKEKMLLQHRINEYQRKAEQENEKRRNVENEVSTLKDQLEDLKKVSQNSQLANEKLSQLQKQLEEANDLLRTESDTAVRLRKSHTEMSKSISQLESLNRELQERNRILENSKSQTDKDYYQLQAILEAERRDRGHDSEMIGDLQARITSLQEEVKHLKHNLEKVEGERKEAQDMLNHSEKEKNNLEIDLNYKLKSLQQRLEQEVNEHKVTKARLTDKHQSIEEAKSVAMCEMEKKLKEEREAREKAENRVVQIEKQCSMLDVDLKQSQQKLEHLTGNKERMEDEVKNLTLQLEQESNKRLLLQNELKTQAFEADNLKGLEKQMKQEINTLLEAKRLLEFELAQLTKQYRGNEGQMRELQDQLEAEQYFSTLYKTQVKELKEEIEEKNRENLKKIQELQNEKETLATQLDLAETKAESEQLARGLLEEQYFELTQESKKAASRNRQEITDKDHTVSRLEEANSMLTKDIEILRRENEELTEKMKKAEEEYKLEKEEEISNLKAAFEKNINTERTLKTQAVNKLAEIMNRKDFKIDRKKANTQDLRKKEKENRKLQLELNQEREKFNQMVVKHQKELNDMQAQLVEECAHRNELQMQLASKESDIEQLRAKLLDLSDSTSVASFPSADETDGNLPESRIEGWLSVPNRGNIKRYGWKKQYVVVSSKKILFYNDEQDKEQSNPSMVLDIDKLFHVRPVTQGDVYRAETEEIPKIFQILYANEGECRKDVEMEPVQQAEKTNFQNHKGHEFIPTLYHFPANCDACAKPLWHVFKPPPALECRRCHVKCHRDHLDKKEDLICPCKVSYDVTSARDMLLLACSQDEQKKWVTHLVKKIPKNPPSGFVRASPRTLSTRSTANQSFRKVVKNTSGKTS
Method in brief: as §1

Rsk3 = Rsk3 (Homo sapiens (Human), UniProt Q15349)
Rsk3, sequence (Q15349 whole entry): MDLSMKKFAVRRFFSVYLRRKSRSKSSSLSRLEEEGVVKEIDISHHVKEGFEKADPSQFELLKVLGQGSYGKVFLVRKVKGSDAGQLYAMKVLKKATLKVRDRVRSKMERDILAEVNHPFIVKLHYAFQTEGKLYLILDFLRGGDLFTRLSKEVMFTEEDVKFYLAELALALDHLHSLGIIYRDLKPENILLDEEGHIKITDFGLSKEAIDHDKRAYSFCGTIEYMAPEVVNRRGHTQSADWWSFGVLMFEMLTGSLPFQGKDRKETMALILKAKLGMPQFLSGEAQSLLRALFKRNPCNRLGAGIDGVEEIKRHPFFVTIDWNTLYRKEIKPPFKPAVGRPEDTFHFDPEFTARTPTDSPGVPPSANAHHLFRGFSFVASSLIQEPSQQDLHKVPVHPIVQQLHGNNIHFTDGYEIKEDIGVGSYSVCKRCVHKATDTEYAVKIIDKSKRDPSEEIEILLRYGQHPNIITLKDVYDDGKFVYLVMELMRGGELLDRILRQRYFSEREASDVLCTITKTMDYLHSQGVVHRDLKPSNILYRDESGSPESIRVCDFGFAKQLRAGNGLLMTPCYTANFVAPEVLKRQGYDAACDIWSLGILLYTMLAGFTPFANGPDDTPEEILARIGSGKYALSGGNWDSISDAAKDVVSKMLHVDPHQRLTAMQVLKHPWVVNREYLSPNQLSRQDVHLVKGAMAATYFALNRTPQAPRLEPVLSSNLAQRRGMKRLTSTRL
Method in brief: as §1

Rsk4 = Rsk4 (Homo sapiens (Human), UniProt Q9UK32)
Method in brief: as §1

SRC = SRC (Homo sapiens (Human), UniProt P12931)
Method in brief: as §1

SRPK2 = SRPK2 (Homo sapiens (Human), UniProt P78362)
Method in brief: as §1

STK33 = STK33 (Homo sapiens (Human), UniProt Q9BYT3)
Method in brief: as §1

TEC Activated = TEC Activated (Homo sapiens (Human), UniProt P42680)
Method in brief: as §1

TSSK2 = TSSK2 (Homo sapiens (Human), UniProt Q96PF2)
TSSK2, sequence (Q96PF2 whole entry): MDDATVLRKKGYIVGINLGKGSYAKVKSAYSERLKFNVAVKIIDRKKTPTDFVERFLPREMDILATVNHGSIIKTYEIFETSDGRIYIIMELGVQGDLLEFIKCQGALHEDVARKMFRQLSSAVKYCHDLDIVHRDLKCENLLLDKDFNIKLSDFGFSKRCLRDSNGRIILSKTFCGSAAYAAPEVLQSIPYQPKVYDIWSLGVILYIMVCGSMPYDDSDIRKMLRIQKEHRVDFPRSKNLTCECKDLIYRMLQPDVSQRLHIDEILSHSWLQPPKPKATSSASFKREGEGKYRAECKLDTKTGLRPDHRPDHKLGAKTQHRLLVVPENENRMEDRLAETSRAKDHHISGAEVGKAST
Method in brief: as §1

ULK2 = ULK2 (Homo sapiens (Human), UniProt Q8IYT8)
Method in brief: as §1

WNK2 = WNK2 (Homo sapiens (Human), UniProt Q9Y3S1)
Method in brief: as §1

p38alpha = p38alpha (Homo sapiens (Human), UniProt Q16539)
Method in brief: as §1

p38gamma = p38gamma (Homo sapiens (Human), UniProt P53778)
Method in brief: as §1

In the case of `COCCN1C[C@@H](NC(=O)Nc2c(C)c(-c3ccnc(C)c3)nn2-c2ccccc2)[C@H](c2ccc(F)c(F)c2)C1` [Example 2, 1-((3S,4R)-4-(3,4-difluorophenyl)-1-(2-methoxyethyl)pyrrolidin-3-yl)-3-(4-methyl-3-(2-methylpyridin-4-yl)-1-phenyl-1H-pyrazol-5-yl)urea], the “Avg POC” value (CK1gamma3) is reported as 87.5 POC, the “Avg POC” value (DAPK2) is reported as 109 POC and the “Avg POC” value (DRAK1) is reported as 86.5 POC. The “Avg POC” value (DYRK2) was 90.5 POC, the “Avg POC” value (ERK2) was 106.5 POC and the “Avg POC” value (EphA3) was 101.5 POC. For the same molecule, the “Avg POC” value (EphA4) was 108.5 POC, the “Avg POC” value (EphA5) was 102.5 POC and the “Avg POC” value (ErbB4) was 98 POC. For the same molecule, the “Avg POC” value (Fgr) was 108.5 POC, the “Avg POC” value (GRK5) was 103.5 POC and the “Avg POC” value (GRK6) was 96.5 POC. The “Avg POC” value (GSK3alpha) was 94 POC, the “Avg POC” value (HIPK2) was 95 POC and the “Avg POC” value (IKKbeta) was 87 POC. For the same molecule, the “Avg POC” value (IRAK4) was 132 POC, the “Avg POC” value (JNK1alpha1) was 98 POC and the “Avg POC” value (JNK3) was 111.5 POC. For the same molecule, the “Avg POC” value (KIT) was 101.5 POC, the “Avg POC” value (MINK) was 98 POC and the “Avg POC” value (MST1) was 94 POC. The “Avg POC” value (PAK5) was 103 POC, the “Avg POC” value (PDGFRbeta) was 108.5 POC and the “Avg POC” value (PKCdelta) was 102.5 POC. For the same molecule, the “Avg POC” value (PKCgamma) was 100.5 POC, the “Avg POC” value (PKD2) was 101.5 POC and the “Avg POC” value (Plk3) was 101 POC. For the same molecule, the “Avg POC” value (PrKX) was 110.5 POC, the “Avg POC” value (ROCK-I) was 98 POC and the “Avg POC” value (Rsk3) was 98 POC. For the same molecule, the “Avg POC” value (Rsk4) was 136.5 POC, the “Avg POC” value (SRC) was 105 POC and the “Avg POC” value (SRPK2) was 96.5 POC. The “Avg POC” value (STK33) was 94 POC, the “Avg POC” value (TEC Activated) was 107 POC and the “Avg POC” value (TSSK2) was 107 POC. For the same molecule, the “Avg POC” value (ULK2) was 96.5 POC, the “Avg POC” value (WNK2) was 98 POC and the “Avg POC” value (p38alpha) was 112 POC. The “Avg POC” value (p38gamma) was 92 POC.

`COCCN1C[C@@H](NC(=O)Nc2c(C)c(-c3cnc(C)nc3)nn2-c2ccccc2)[C@H](c2cc(F)cc(F)c2)C1` [Example 14, 1-((3S,4R)-4-(3,5-difluorophenyl)-1-(2-methoxyethyl)pyrrolidin-3-yl)-3-(4-methyl-3-(2-methylpyrimidin-5-yl)-1-phenyl-1H-pyrazol-5-yl)urea] was tested, and the “Avg POC” value (CK1gamma3) was 95 POC, the “Avg POC” value (DAPK2) was 107 POC and the “Avg POC” value (DRAK1) was 101.5 POC. The “Avg POC” value (DYRK2) was 85 POC, the “Avg POC” value (ERK2) was 92.5 POC and the “Avg POC” value (EphA3) was 106.5 POC. The “Avg POC” value (EphA4) was 103.5 POC, the “Avg POC” value (EphA5) was 101.5 POC and the “Avg POC” value (ErbB4) was 101.5 POC. For the same molecule, the “Avg POC” value (Fgr) was 80.5 POC, the “Avg POC” value (GRK5) was 91 POC and the “Avg POC” value (GRK6) was 97 POC. For the same molecule, the “Avg POC” value (GSK3alpha) was 101.5 POC, the “Avg POC” value (HIPK2) was 99 POC and the “Avg POC” value (IKKbeta) was 99 POC. For the same molecule, the “Avg POC” value (IRAK4) was 110.5 POC, the “Avg POC” value (JNK1alpha1) was 105 POC and the “Avg POC” value (JNK3) was 121 POC. The “Avg POC” value (KIT) was 101.5 POC, the “Avg POC” value (MINK) was 89.5 POC and the “Avg POC” value (MST1) was 97.5 POC. The “Avg POC” value (PAK5) was 107 POC, the “Avg POC” value (PDGFRbeta) was 120 POC and the “Avg POC” value (PKCdelta) was 99.5 POC. The “Avg POC” value (PKCgamma) was 89.5 POC, the “Avg POC” value (PKD2) was 108 POC and the “Avg POC” value (Plk3) was 93.5 POC. For the same molecule, the “Avg POC” value (PrKX) was 94 POC, the “Avg POC” value (ROCK-I) was 109.5 POC and the “Avg POC” value (Rsk3) was 96 POC. The “Avg POC” value (Rsk4) was 113.5 POC, the “Avg POC” value (SRC) was 103.5 POC and the “Avg POC” value (SRPK2) was 102.5 POC. For the same molecule, the “Avg POC” value (STK33) was 103.5 POC, the “Avg POC” value (TEC Activated) was 83.5 POC and the “Avg POC” value (TSSK2) was 107.5 POC. The “Avg POC” value (ULK2) was 106.5 POC, the “Avg POC” value (WNK2) was 99.5 POC and the “Avg POC” value (p38alpha) was 101 POC. For the same molecule, the “Avg POC” value (p38gamma) was 92.5 POC.
